Test results as given in patent publication US5348980A, “Enantiomers derived from (S)-2-amino-2-(3,4-dichlorobenzyl)-1-propanol, their use and method of preparation” (Institute de Recherche Jouveinal, priority 1992, dated 1994).
Counter-ions that a name gives are not always drawn.

Legend:
Type in all cases: in vivo, guinea pigs
[1] = tested on: bronchoconstriction caused by 100 μmol/kg of histamine; assay: Histamine-induced bronchoconstriction test (Konzett and Rossler), i.v. administration; conditions: for ED50: Cavia porcellus, iv
Excerpt: (§1) Furthermore, the antihistaminic properties were studied in guinea pigs by the bronchoconstriction test performed according to the method of H. Konzett and R. Rossler (Arch. Exp. Path. Pharmak.--Naunym Schmiedeberg - 195, 71-74, 1940).
(§2) The products of the invention were studied in this test after administration in solution or in suspension via the intravenous and intraduodenal routes, and also in powder form via the intranasal route.
(§3) Irrespective of the administration route, the preparation of the animals employed in the test consists in first anesthetizing male guinea pigs weighing 350 to 400 g by intraperitoneal (i.p.) injection of a sterile and isotonic solution containing 25% (w/v.) of ethyl carbamate on the basis of 6.0 ml/kg, and in then fitting the animals with a tracheal cannula to permit measurement of the pulmonary pressure, a cannula in the right jugular vein for the intravenous (i.v.) administration of solution, and also a cannula in the left carotid artery for qualitative observation of the blood pressure.
(§4) The animals are then connected to a pump (Harvard, ref. 50-1718) in order to maintain an artificial ventilation at a frequency of 60 insufflations per minute; the intratracheal pressure is recorded by an assembly comprising a transducer, an amplifier and a recorder (Gould, respective refs.: PLOEZ, 13-4615-50 and 8188-G4400-06).
(§5) Fitted in this way, the animals are left undisturbed for 10 minutes before the beginning of the actual experiment, which is carried out in different ways according to the administration route envisaged.
(§6) In base form, the test products are dissolved in an isotonic solution (0.9% NaCl) containing 10% (v/v) of Transcutol (R). Dilutions are performed by adding isotonic solution. In salt, in particular hydrochloride, form, the solutions are prepared in the isotonic solution.
(§7) The treatment of the animals consists of a series of administrations of histamine dihydrochloride solution on the basis of 100 μmol/kg before and after treatment with the solution of test product, which is carried out according to the following time schedule:
(§8) t=-20 minutes - histamine (100 μmol/kg)
(§9) t=-10 minutes - ditto control
(§10) t=0 - injection of the test product
(§11) t=+10 minutes - histamine (100 μmol/kg)
(§12) - Calculation and expression of the results:
(§13) For each administration route and for each time of administration of histamine, the activity of the products is expressed as the percentage change in amplitude of bronchoconstriction, calculated relative to that produced by the "control" administration of histamine which precedes the administration of the test product. The % change is calculated according to the formula: [formula] in which: Bc(tx) represents the amplitude of the bronchoconstriction in mm at time x,
(§14) Bo(tx) the amplitude of the base-line respiration in mm at time x,
(§15) Bc(to) and Bo(to) the corresponding amplitudes in mm on receipt of the "control" administration of histamine which precedes that of the test product.
(§16) The inhibitory activity of the test products on histamine-induced bronchoconstriction is expressed at different times of the studies as their ED50, which is the effective dose of product, expressed in μmol/kg, capable of inhibiting 50% of the histamine-induced bronchoconstriction at the time in question.
(§17) Failing this expression, the results are expressed as a % change at the time in question and for a given concentration of the test product. Under these conditions, a positive percentage corresponds to a potentiating effect on bronchoconstriction and, conversely, a negative percentage to an inhibitory effect.
(§18) Statistical analyses of the results were carried out by the Student t test. A value of p<0.05 is considered significant.
(§19) The compounds of the invention described in Examples 1 and 2 were employed in these tests. In addition, as a comparative product for the eutomer of Example 1, the racemic (R,S) compound corresponding to it, and which is described and prepared in Example 7 of U.S. Pat. No. 4,994,617, was employed. […]

[2] = tested on: bronchoconstriction caused by 100 nmol/kg of histamine; assay: Histamine-induced bronchoconstriction test (Konzett and Rossler), intranasal-powder (In.P.) administration; conditions: Cavia porcellus, 5 min, t = 5 min, read-out: ED50 at t = 5 min, inhibition of histamine-induced bronchoconstriction
Excerpt: Furthermore, the antihistaminic properties were studied in guinea pigs by the bronchoconstriction test performed according to the method of H. Konzett and R. Rossler (Arch. Exp. Path. Pharmak.--Naunym Schmiedeberg - 195, 71-74, 1940). The products of the invention were studied in this test after administration in solution or in suspension via the intravenous and intraduodenal routes, and also in powder form via the intranasal route. Irrespective of the administration route, the preparation of the animals employed in the test consists in first anesthetizing male guinea pigs weighing 350 to 400 g by intraperitoneal (i.p.) injection of a sterile and isotonic solution containing 25% (w/v.) of ethyl carbamate on the basis of 6.0 ml/kg, and in then fitting the animals with a tracheal cannula to permit measurement of the pulmonary pressure, a cannula in the right jugular vein for the intravenous (i.v.) administration of solution, and also a cannula in the left carotid artery for qualitative observation of the blood pressure. The animals are then connected to a pump (Harvard, ref. 50-1718) in order to maintain an artificial ventilation at a frequency of 60 insufflations per minute; the intratracheal pressure is recorded by an assembly comprising a transducer, an amplifier and a recorder (Gould, respective refs.: PLOEZ, 13-4615-50 and 8188-[…]-06). Fitted in this way, the animals are left undisturbed for 10 minutes before the beginning of the actual experiment, which is carried out in different ways according to the administration route envisaged. c) intranasal-powder (In.p) administration The test product is administered via a nasal insufflation of a powder consisting of 20 mg of lactose loaded with the appropriate quantity of the test product. Before this insufflation, the artificial ventilation of the animal is momentarily stopped in order to facilitate the pulmonary penetration of the compound. […] Failing this expression, the results are expressed as a % change at the time in question and for a given concentration of the test product. […]

[3] = tested on: bronchoconstriction caused by 100 μmol/kg of histamine; assay: Histamine-induced bronchoconstriction test (Konzett and Rossler), intraduodenal (i.d.) administration; conditions: for ED50: Cavia porcellus
Excerpt: as §1, §2, §3, §4, §5
In base form, the test products are suspended in a solution containing 1% w/v of carboxymethylcellulose (CMC), and, in salt form, they are dissolved in an isotonic solution before being administered via a cannula whose end is placed in the animal's duodenum.
The time schedule for the successive administrations of histamine via the i.v. route and that for the test solution via the i.d. route are identical to that described above in a).
as §12, §13, §14, §15, §16, §17, §18, §19

[4] = tested on: bronchoconstriction caused by histamine; assay: Histamine-induced bronchoconstriction test (Konzett and Rossler), i.v. administration; conditions: 3.5 μmol/kg, t = 10', statistically nonsignificant
Excerpt: as §1, §2, §3, §4, §5, §6, §7, §8, §9, §10, §11, §12, §13, §14, §15, §16, §17, §18, §19

[5] = 10 min, t = 10', read-out: ED50, inhibition of histamine-induced bronchoconstriction, t = 10'
[6] = 20 min, t = 20', read-out: ED50, inhibition of histamine-induced bronchoconstriction, t = 20'
[7] = 0.5 h, t = 30', read-out: ED50, inhibition of histamine-induced bronchoconstriction, t = 30'
[8] = 40 min, t = 40', read-out: ED50, inhibition of histamine-induced bronchoconstriction, t = 40'
[9] = 50 min, t = 50', read-out: ED50, inhibition of histamine-induced bronchoconstriction, t = 50'
[10] = 1 h, t = 60', read-out: ED50, inhibition of histamine-induced bronchoconstriction, t = 60'
[11] = 3.5 μmol/kg, t = 20', statistically nonsignificant
[12] = 3.5 μmol/kg, t = 30', statistically nonsignificant
[13] = 3.5 μmol/kg, t = 40', statistically nonsignificant
[14] = 3.5 μmol/kg, t = 50', statistically nonsignificant
[15] = 3.5 μmol/kg, t = 60', statistically nonsignificant

Compound | ED50 [1, 5] [µmol/kg] | ED50 [1, 6] [µmol/kg] | ED50 [1, 7] [µmol/kg] | ED50 [1, 8] [µmol/kg] | ED50 [1, 9] [µmol/kg] | ED50 [1, 10] [µmol/kg] | further results
C=CCN(C)C(C)(CO)Cc1ccc(Cl)c(Cl)c1 (racemic) [Comparative racemate. HCl] | 3.72 | 2.11 | 1.88 | 2.07 | 2.34 | 2.22 | –
C=CCNC(C)(CO)Cc1ccc(Cl)c(Cl)c1 (racemic) [Comparative racemate] | 6.65 | 4.1 | 4.38 | 3.39 | 3.02 | 3.52 | –
CC1(C)Oc2ccc(C#N)cc2[C@H](N2CCCC2=O)[C@H]1O (relative stereo) [Cromakalim (INN), reference compound] | – | – | – | – | – | – | ED50 [2]: 1.88 µmol/kg
C=CCN(C)[C@@](C)(CO)Cc1ccc(Cl)c(Cl)c1 [Comparative distomer, (R)-(-)-N-allyl-2-methylamino-2-(3,4-dichlorobenzyl)-1-propanol, reference compound] | – | – | – | – | – | – | effect on histamine activity (in words) [3]: perceptibly though not significantly in statistical terms, a potentiating effect on histamine activity; % potentiating effect on bronchoconstriction, t = 10' ([3]; 3.5 μmol/kg, t = 10', statistically nonsignificant): +5.8%; % potentiating effect on bronchoconstriction, t = 20' [3, 11]: +14.6%; % potentiating effect on bronchoconstriction, t = 30' [3, 12]: +32.4%; % potentiating effect on bronchoconstriction, t = 40' [3, 13]: +44.5%; % potentiating effect on bronchoconstriction, t = 50' [3, 14]: +35.6%; % potentiating effect on bronchoconstriction, t = 60' [3, 15]: +30.0%; effect on histamine activity (in words) [1]: perceptibly though not significantly in statistical terms, a potentiating effect on histamine activity; % potentiating effect on bronchoconstriction, t = 20' [1, 11]: +18.4%; % potentiating effect on bronchoconstriction, t = 30' [1, 12]: +28.2%; % potentiating effect on bronchoconstriction, t = 40' [1, 13]: +35.4%; % potentiating effect on bronchoconstriction, t = 50' [1, 14]: +36.7%; % potentiating effect on bronchoconstriction, t = 60' [1, 15]: +41.1%; % potentiating effect on bronchoconstriction, t = 10' [4]: +6.3%
C=CCN[C@](C)(CO)Cc1ccc(Cl)c(Cl)c1 [Example 1, (S)-(-)-N-allyl-2-amino-2-(3,4-dichlorobenzyl)-1-propanol] | 4.89 | 2.88 | 2.54 | 2.58 | 3.17 | 3.55 | ED50 [3, 6]: 1 µmol/kg; ED50 [3, 7]: 0.78 µmol/kg; ED50 [3, 8]: 0.69 µmol/kg; ED50 [3, 9]: 1.28 µmol/kg; ED50 [3, 10]: 2.17 µmol/kg
O=C1NCC2(CCN(CCc3ccccc3)CC2)O1 [Fenspiride (INN). HCl] | 4.25 | 4.99 | 6.26 | 8.9 | 8.01 | 11 | –
